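Test compounds were applied to cells in 96-well plates for 48 hours at 5 doses. GI50 marks 50% less growth.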 Activity calls are given as the source filed them. Cut-off read from the data, not from the text of the source: active = GI50 up to about 1.1 µM and inactive = higher.

Four compounds from ChEMBL document CHEMBL1201862, “PubChem BioAssay data set” (2004) can be followed below.

What all share (experiment): inhibition of tumour cell growth, NCI panel, 48 h
For experiment [1], the system named is 786-0.
Experiment [2] concerns A498.
Experiment [3] concerns A549.
Experiment [4] relates to BT-549.
Experiment [5] has as its system CCRF-CEM.
The subject of experiment [6] is COLO 205.
Experiment [7] deals with EKVX.
For experiment [8], the system named is HCT-116.
Experiment [9] has as its system KM12.
Experiment [10] deals with LOX IMVI.
Experiment [11] deals with MDA-MB-231.
For experiment [12], the system named is MDA-N.
The subject of experiment [13] is Malme-3M.
The subject of experiment [14] is NCI/ADR-RES.
The test system of experiment [15] is OVCAR-4.
In experiment [16] the test system is OVCAR-8.
The test system of experiment [17] is SF-295.
Experiment [18] deals with SK-MEL-28.
In experiment [19] the test system is SR.
Experiment [20] relates to UACC-257.

As to `C[C@H](CCC1=NCCN1)[C@H]1CC[C@H]2[C@@H]3CC[C@@H]4C[C@H](O)CC[C@]4(C)[C@H]3CC[C@]12C`, the GI50 in experiment [1] is 2.37 µM (inactive); in experiment [2], 14.9 µM (inactive); in experiment [3] it was 8 µM (inactive); in experiment [4], 14.4 µM (inactive); in [5], 4.08 µM (inactive); in [6], 1.95 µM (inactive). The GI50 in [7] is 13.3 µM (inactive); in experiment [8], 4.72 µM (inactive); in experiment [9], 7.59 µM (inactive); in experiment [10] it was 1.95 µM (inactive); in experiment [11], 5.78 µM (inactive); in experiment [12], 10.1 µM (inactive). Further, the GI50 was 2.44 µM (inactive) in [13]; 16.1 µM (inactive) in experiment [14]; 12.9 µM (inactive) in experiment [15]; 12 µM (inactive) in experiment [16]; 3.4 µM (inactive) in experiment [17]; 2.08 µM (inactive) in [18]. Moreover, the GI50 in experiment [19] and in [20] was 2.55 µM (inactive) each time.
For the compound `CC1=NN(c2cccc(S(=O)(=O)O)c2)C2(C1)C(Cl)C(=O)N2c1nc2ccccc2s1` (stereo not given), the GI50 in experiment [1] is 5.56 µM (inactive); in experiment [2], 18.2 µM (inactive); in [3], 8.61 µM (inactive); in [4] it was 5.5 µM (inactive); in experiment [5], 1.26 µM (inactive); in [6], 8.3 µM (inactive). Besides, the GI50 in experiment [7] is 8.53 µM (inactive); in experiment [8], 6.47 µM (inactive); in experiment [9], 9.23 µM (inactive); in experiment [10], 1.25 µM (inactive); in [11], 8.73 µM (inactive); in [12], 13.1 µM (inactive). In addition, the GI50 in [13] was 5.83 µM (inactive); in [14] it was 4.99 µM (inactive); in [15], 4.74 µM (inactive); in experiment [16] it was 5.65 µM (inactive); in [17], 13.8 µM (inactive); in [18] it was 15.7 µM (inactive). Also, the GI50 in experiment [19] is 7.08 µM (inactive); in [20], 13.6 µM (inactive).
In the case of `CCN(CC)CCc1c2c(nc3ccccc13)C(=O)c1cccnc1C2=O`, the GI50 in experiment [1] is 2.07 µM (inactive); in experiment [2], 1.97 µM (inactive); in experiment [3], 2.88 µM (inactive); in [4] it was 2.4 µM (inactive); in experiment [5], 1.97 µM (inactive); in [6], 1.58 µM (inactive). Moreover, the GI50 in [7] is 2.89 µM (inactive); in experiment [8], 0.325 µM (active); in [9], 0.857 µM (active); in experiment [10], 0.369 µM (active); in experiment [11], 1.83 µM (inactive); in experiment [12], 1.67 µM (inactive). In addition, the GI50 is 2.02 µM (inactive) in experiment [13]; 4.28 µM (inactive) in experiment [14]; 0.726 µM (active) in experiment [15]; 3.52 µM (inactive) in [16]; 2.02 µM (inactive) in experiment [17]; 1.8 µM (inactive) in experiment [18]. Further, the GI50 in experiment [19] was 0.211 µM (active); in [20], 1.38 µM (inactive).
`O=C(/C=c1\oc(=O)/c(=C/C(=O)c2ccc(Cl)cc2)oc1=O)c1ccc(Cl)cc1`: the GI50 in [1] was > 100 µM (inactive); in experiment [2], > 100 µM (inactive); in experiment [3], > 100 µM (inactive); in experiment [4] it was 10.4 µM (inactive); in [5], 39.4 µM (inactive); in experiment [6], > 100 µM (inactive). Also, the GI50 in experiment [7] was > 100 µM (inactive); in experiment [8] it was > 100 µM (inactive); in [9] it was > 100 µM (inactive); in experiment [10] it was 48.4 µM (inactive); in [11], > 100 µM (inactive); in experiment [12], > 100 µM (inactive). For the same compound, the GI50 in [13] was 51.3 µM (inactive); in [14], > 100 µM (inactive); in experiment [15] it was 39.6 µM (inactive); in [16], > 100 µM (inactive); in experiment [17], > 100 µM (inactive); in experiment [18], > 100 µM (inactive). Further, the figures for the GI50 in experiment [19] and in [20] were 52.6 µM (inactive) and > 100 µM (inactive), respectively.
